Our source for the Ratio, inhibition and Ki values is ChEMBL document CHEMBL1153172, “Oxo-bridged isomers of aza-trishomocubane sigma (sigma) receptor ligands: Synthesis, in vitro binding, and molecular modeling” (Bioorg Med Chem Lett, 2010).

A short description of test [1]: Selectivity, ratio of Ki for sigma 1 to Ki for sigma 2.
Test [2] deals with T1, Sodium-dependent dopamine transporter (Homo sapiens, UniProt Q01959). Briefly: Inhibition of DAT at 10 uM.
A short description of test [3]: Binding affinity to sigma 2 receptor.
Test [4] is described as follows: Inhibition of 5HT receptor at 10 uM.
For test [5], the target named is Sigma non-opioid intracellular receptor 1 (Homo sapiens, UniProt Q99720). Briefly: Binding affinity to sigma 1 receptor.
Sigma non-opioid intracellular receptor 1, sequence (Q99720 whole entry): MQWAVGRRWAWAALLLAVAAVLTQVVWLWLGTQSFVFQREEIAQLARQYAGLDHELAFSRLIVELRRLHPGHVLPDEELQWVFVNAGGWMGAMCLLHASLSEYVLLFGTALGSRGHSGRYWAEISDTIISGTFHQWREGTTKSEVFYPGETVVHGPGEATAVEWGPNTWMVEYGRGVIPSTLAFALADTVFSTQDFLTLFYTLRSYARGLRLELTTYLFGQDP
Test [6] deals with T2, Alpha-2C adrenergic receptor (Homo sapiens) (UniProt P18825).
T2 sequence (whole entry): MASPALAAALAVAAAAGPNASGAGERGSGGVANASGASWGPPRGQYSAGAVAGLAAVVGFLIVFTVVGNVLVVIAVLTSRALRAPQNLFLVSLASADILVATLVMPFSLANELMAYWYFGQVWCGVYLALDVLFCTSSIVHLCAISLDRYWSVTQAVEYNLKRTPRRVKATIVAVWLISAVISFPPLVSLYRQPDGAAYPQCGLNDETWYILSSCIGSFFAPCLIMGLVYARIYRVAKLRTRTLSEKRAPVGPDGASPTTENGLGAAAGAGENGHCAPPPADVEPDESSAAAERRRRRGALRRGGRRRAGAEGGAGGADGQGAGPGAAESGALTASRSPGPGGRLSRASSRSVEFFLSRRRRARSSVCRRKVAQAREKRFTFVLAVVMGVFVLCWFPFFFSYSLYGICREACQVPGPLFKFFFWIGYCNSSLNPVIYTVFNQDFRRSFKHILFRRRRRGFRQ
Briefly: Inhibition of Alpha2C adrenoceptor receptor at 10 uM.

Test [7] concerns the target T1, Sodium-dependent dopamine transporter. Briefly: Binding affinity to DAT.
Test [8] concerns the target T3, Alpha-2C adrenergic receptor (Homo sapiens, UniProt P18825).
T3 sequence (P18825 whole entry): T2 sequence (whole entry)
Briefly: (§1) Binding affinity to Alpha2C adrenoceptor receptor.

In test [9] the target is D(2) dopamine receptor (Homo sapiens) (UniProt P14416). Briefly: Inhibition of D2 receptor at 10 uM.
Test [10] concerns the target Cannabinoid receptor 2 (Homo sapiens) (UniProt P34972). Briefly: Inhibition of CB2 receptor at 10 uM.
Test [11] concerns the target T4, Sodium-dependent noradrenaline transporter (Homo sapiens, UniProt P23975). Briefly: Binding affinity to NET.
Test [12] deals with 5-hydroxytryptamine receptor 2C (Homo sapiens) (UniProt P28335). Briefly: Inhibition of 5HT2C receptor at 10 uM.
5-hydroxytryptamine receptor 2C (Homo sapiens), sequence (P28335 whole entry): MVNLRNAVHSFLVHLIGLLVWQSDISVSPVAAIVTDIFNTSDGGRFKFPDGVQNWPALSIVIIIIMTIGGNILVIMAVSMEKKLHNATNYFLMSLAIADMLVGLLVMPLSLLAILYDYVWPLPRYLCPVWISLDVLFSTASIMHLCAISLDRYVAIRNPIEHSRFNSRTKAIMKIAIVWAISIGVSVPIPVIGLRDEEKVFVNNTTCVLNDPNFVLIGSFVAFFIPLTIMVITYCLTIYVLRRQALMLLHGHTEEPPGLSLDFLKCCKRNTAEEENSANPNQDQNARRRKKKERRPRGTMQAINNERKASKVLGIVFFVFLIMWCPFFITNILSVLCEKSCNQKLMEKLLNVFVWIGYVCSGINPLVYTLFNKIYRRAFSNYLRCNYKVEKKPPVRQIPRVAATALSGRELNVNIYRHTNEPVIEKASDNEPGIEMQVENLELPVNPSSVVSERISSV
Test [13] deals with Beta-1 adrenergic receptor (Homo sapiens) (UniProt P08588). Briefly: Inhibition of beta-1 adrenoceptor receptor at 10 uM.
In test [14] the target is Alpha-2A adrenergic receptor (Homo sapiens) (UniProt P08913). Briefly: Inhibition of Alpha2A adrenoceptor receptor at 10 uM.
Test [15] deals with Histamine H2 receptor (Homo sapiens) (UniProt P25021). Briefly: Inhibition of histamine H2 receptor at 10 uM.
Histamine H2 receptor (Homo sapiens), sequence (P25021 whole entry): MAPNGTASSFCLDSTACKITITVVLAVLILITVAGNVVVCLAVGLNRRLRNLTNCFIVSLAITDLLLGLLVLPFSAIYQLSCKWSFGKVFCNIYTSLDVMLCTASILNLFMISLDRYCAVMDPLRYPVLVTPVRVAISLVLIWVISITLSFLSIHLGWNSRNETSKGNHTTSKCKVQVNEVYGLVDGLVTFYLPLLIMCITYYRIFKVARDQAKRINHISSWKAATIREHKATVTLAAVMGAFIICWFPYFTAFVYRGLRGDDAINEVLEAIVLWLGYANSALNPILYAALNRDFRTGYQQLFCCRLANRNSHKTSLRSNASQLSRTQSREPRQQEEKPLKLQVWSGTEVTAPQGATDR
In test [16] the target is 5-hydroxytryptamine receptor 1A (Homo sapiens, UniProt P08908). Briefly: Binding affinity to 5HT1A receptor.
The target of test [17] is Alpha-2B adrenergic receptor (Homo sapiens) (UniProt P18089). Briefly: Inhibition of Alpha2B adrenoceptor receptor at 10 uM.
Alpha-2B adrenergic receptor (Homo sapiens), sequence (P18089 whole entry): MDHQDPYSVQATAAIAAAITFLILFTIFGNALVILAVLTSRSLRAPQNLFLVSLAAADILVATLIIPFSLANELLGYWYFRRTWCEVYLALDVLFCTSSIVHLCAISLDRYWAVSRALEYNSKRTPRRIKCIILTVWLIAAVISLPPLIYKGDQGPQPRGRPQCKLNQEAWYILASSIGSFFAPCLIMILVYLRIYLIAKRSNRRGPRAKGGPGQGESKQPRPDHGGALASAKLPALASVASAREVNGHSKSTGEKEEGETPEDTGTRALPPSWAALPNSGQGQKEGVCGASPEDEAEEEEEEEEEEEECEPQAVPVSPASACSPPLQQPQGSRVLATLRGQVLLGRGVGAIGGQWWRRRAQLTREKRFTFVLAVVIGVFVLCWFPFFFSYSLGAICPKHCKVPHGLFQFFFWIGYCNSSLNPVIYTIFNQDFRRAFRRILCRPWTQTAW
Test [18] deals with Histamine H1 receptor (Homo sapiens) (UniProt P35367). Briefly: Inhibition of histamine H1 receptor at 10 uM.
Test [19] deals with Beta-2 adrenergic receptor (Homo sapiens) (UniProt P07550). Briefly: Inhibition of beta2 adrenoceptor receptor at 10 uM.
For test [20], the target named is 5-hydroxytryptamine receptor 2B (Homo sapiens) (UniProt P41595). Briefly: Inhibition of 5HT2B receptor at 10 uM.
Test [21] has as its target Mu-type opioid receptor (Homo sapiens) (UniProt P35372). Briefly: Inhibition of mu opioid receptor at 10 uM.
For test [22], the target named is Histamine H4 receptor (Homo sapiens) (UniProt Q9H3N8). Briefly: Inhibition of histamine H4 receptor at 10 uM.
Test [23] has as its target 5-hydroxytryptamine receptor 1B (Homo sapiens) (UniProt P28222). Briefly: Inhibition of 5HT1B receptor at 10 uM.
Test [24] has as its target 5-hydroxytryptamine receptor 7 (Homo sapiens) (UniProt P34969). Briefly: Inhibition of 5HT7 receptor at 10 uM.
For test [25], the target named is 5-hydroxytryptamine receptor 1E (Homo sapiens) (UniProt P28566). Briefly: Inhibition of 5HT1E receptor at 10 uM.
Test [26] deals with 5-hydroxytryptamine receptor 1D (Homo sapiens) (UniProt P28221). Briefly: Inhibition of 5HT1D receptor at 10 uM.
In test [27] the target is 5-hydroxytryptamine receptor 2A (Homo sapiens) (UniProt P28223). Briefly: Inhibition of 5HT2A receptor at 10 uM.
In test [28] the target is 5-hydroxytryptamine receptor 5A (Homo sapiens) (UniProt P47898). Briefly: Inhibition of 5HT5A receptor at 10 uM.
In test [29] the target is 5-hydroxytryptamine receptor 3A (Homo sapiens) (UniProt P46098). Briefly: Inhibition of 5HT3 receptor at 10 uM.
5-hydroxytryptamine receptor 3A (Homo sapiens), sequence (P46098 whole entry): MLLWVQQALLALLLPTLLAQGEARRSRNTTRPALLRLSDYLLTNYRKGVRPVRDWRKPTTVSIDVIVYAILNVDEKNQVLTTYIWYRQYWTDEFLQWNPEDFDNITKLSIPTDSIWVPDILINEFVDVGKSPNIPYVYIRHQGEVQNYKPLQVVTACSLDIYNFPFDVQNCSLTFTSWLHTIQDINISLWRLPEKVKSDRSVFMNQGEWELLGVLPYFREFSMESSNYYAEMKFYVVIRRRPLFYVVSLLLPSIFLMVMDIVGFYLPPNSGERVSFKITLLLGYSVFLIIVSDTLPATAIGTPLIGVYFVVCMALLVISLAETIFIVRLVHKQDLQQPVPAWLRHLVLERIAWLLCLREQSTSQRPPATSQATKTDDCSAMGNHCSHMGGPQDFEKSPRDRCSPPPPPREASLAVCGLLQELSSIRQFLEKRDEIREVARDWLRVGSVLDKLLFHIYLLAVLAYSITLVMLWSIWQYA
Test [30] addresses 5-hydroxytryptamine receptor 6 (Homo sapiens) (UniProt P50406). Briefly: Inhibition of 5HT6 receptor at 10 uM.
Test [31] addresses Cannabinoid receptor 1 (Homo sapiens) (UniProt P21554). Briefly: Inhibition of CB1 receptor at 10 uM.
In test [32] the target is 5-hydroxytryptamine receptor 4 (Homo sapiens) (UniProt Q13639). Briefly: Inhibition of 5HT4 receptor at 10 uM.
The target in test [33] is Histamine H3 receptor (Homo sapiens) (UniProt Q9Y5N1). Briefly: Inhibition of histamine H3 receptor at 10 uM.
Histamine H3 receptor (Homo sapiens), sequence (Q9Y5N1 whole entry): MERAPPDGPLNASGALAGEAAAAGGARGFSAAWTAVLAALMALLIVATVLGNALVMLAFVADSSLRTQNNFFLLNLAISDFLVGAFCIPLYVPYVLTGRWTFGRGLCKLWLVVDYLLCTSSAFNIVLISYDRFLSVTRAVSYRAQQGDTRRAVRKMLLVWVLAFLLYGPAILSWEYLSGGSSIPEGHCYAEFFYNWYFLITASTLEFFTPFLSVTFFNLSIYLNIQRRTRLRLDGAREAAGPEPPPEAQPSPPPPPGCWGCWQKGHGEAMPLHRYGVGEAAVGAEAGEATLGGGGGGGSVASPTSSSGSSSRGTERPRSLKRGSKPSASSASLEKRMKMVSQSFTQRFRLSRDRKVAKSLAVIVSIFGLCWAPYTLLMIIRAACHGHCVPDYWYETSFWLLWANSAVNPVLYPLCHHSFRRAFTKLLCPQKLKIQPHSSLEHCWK
For test [34], the target named is T3, Alpha-2C adrenergic receptor. The description is as §1. This is another data set of the same source.
For test [35], the target named is Kappa-type opioid receptor (Homo sapiens) (UniProt P41145). Briefly: Inhibition of Kappa opioid receptor at 10 uM.
Test [36] concerns the target Alpha-1A adrenergic receptor (Homo sapiens) (UniProt P35348). Briefly: Inhibition of Alpha1A adrenoceptor receptor at 10 uM.
A short description of test [37]: Inhibition of phencyclidine binding site of NMDA receptor at 10 uM.
The target in test [38] is D(1A) dopamine receptor (Homo sapiens) (UniProt P21728). Briefly: Inhibition of D1 receptor at 10 uM.
The nature of test [39]: Inhibition of Ca2+ channel at 10 uM.
For test [40], the target named is Alpha-1B adrenergic receptor (Homo sapiens) (UniProt P35368). Briefly: Inhibition of Alpha1B adrenoceptor receptor at 10 uM.
Test [41] addresses Delta-type opioid receptor (Homo sapiens) (UniProt P41143). Briefly: Inhibition of Delta opioid receptor at 10 uM.
Test [42] concerns the target T4, Sodium-dependent noradrenaline transporter. Briefly: Inhibition of NET at 10 uM.
Test [43] concerns the target 5-hydroxytryptamine receptor 1A (Homo sapiens) (UniProt P08908). Briefly: Inhibition of 5HT1A receptor at 10 uM.

T1 sequence (Q01959 whole entry): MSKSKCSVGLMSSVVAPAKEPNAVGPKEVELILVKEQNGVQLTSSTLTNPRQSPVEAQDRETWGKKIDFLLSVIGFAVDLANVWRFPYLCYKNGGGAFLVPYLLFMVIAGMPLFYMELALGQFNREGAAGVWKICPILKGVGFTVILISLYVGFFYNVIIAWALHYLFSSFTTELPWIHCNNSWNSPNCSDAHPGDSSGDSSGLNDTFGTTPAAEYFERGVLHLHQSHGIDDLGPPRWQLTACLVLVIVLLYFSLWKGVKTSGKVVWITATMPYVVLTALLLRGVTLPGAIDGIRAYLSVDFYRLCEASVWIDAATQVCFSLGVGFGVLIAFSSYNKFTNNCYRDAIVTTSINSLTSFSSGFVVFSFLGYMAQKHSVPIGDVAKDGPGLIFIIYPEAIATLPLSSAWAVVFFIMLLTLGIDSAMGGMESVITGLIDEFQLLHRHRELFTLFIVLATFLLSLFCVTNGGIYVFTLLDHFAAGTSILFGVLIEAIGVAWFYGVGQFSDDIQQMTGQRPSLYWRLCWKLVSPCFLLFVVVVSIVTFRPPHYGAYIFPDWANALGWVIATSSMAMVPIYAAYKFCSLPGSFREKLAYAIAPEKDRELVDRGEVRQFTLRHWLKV
Delta-type opioid receptor (Homo sapiens), sequence (P41143 whole entry): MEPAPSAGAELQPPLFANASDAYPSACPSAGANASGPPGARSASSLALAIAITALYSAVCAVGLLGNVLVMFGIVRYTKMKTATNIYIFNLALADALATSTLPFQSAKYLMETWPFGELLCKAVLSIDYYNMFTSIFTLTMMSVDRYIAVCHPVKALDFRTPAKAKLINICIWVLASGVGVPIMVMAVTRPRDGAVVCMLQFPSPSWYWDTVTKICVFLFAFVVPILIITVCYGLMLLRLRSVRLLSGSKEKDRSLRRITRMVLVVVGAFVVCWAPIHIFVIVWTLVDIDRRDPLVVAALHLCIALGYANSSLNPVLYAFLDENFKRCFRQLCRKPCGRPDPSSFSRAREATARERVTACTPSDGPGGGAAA
Mu-type opioid receptor (Homo sapiens), sequence (P35372 whole entry): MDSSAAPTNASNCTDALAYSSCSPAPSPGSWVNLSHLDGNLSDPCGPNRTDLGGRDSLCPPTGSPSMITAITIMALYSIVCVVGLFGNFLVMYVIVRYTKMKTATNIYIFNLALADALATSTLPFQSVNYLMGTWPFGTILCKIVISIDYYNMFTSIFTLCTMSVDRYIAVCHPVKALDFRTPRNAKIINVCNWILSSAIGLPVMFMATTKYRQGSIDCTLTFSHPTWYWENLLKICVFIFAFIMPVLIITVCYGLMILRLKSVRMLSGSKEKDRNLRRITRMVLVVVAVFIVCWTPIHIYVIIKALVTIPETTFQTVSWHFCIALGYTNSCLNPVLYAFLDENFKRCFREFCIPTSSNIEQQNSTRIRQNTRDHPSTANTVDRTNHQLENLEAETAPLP
T4 sequence (P23975 whole entry): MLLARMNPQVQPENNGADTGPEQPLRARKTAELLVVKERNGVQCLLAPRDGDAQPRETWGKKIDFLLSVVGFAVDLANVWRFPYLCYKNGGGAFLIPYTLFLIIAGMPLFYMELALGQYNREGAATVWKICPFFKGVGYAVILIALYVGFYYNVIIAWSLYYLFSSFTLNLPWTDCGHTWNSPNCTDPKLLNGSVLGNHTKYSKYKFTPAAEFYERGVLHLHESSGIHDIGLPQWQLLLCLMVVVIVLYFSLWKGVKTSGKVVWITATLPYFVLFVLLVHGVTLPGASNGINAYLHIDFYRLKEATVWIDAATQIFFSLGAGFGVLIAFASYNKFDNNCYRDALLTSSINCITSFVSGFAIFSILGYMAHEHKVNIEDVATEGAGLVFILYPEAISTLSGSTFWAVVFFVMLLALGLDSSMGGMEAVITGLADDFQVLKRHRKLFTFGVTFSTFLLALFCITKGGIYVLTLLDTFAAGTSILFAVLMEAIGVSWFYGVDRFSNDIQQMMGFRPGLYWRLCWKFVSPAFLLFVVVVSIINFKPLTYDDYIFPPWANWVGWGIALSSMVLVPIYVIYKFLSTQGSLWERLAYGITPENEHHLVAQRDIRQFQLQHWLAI
5-hydroxytryptamine receptor 7 (Homo sapiens), sequence (P34969 whole entry): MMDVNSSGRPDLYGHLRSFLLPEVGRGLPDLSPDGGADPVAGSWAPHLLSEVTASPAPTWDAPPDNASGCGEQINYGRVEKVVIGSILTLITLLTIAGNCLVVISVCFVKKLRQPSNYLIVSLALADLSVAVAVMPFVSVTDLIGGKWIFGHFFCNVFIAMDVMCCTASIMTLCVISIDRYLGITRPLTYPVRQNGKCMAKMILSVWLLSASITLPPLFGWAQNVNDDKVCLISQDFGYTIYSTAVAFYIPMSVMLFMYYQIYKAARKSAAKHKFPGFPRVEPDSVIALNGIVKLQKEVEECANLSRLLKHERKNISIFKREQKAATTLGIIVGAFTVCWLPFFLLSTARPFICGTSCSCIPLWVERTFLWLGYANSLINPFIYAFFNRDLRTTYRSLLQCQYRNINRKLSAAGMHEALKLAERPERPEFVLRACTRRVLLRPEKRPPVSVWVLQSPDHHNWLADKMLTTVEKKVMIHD

As to `OC12C3C4CC5C6C4C1C6C(C53)N2CCc1cccc(F)c1` (stereo not drawn), the Ratio in [1] is 0.25. For the same compound, the inhibition in test [2], in test [4] and in test [6] was less than 50% in each case. For the same compound, the inhibition constant Ki (usually the equilibrium dissociation constant of an inhibitor or competing ligand from its target) in test [3] was 48 nM; in [5], 12 nM; in test [7], greater than 10000 nM; in [8], greater than 10000 nM.

Regarding `Fc1cccc(CCNC23OC4C5C6CC(C7C6C4C72)C53)c1` (stereo not drawn), the inhibition in [9], in test [10], in test [12], in [13], in test [14] and in test [15] was less than 50% throughout. Also, the inhibition in [17], in test [18], in test [19], in test [20], in test [21] and in test [22] was less than 50% each time. In addition, the inhibition in [23], in test [24], in test [25], in [26], in [4] and in test [27] was less than 50% in each case. Moreover, the inhibition in [28], in [29], in [30], in test [31], in test [32] and in test [33] was less than 50% each time. The inhibition in test [35], in [36], in test [37], in test [38], in test [39] and in [40] was less than 50% throughout. Moreover, the inhibition (commonly the drop in the measured response relative to a control, in per cent) in test [41] is less than 50%. Further, the Ki in [11] was greater than 10000 nM; in test [16] it was greater than 10000 nM; in [3], 363 nM; in [5], 149 nM; in test [34] it was 20 nM; in test [7], 137 nM. Also, the Ki in test [8] was determined as 20 nM. Besides, the Ratio in test [1] amounted to 0.41.

With `Fc1cccc(CNC23OC4C5C6CC(C7C6C4C72)C53)c1` (stereo not drawn), the inhibition in test [9], in [10], in [12], in test [42], in [2] and in [13] was less than 50% each time. For the same compound, the inhibition in test [14], in test [15], in test [17], in test [18], in [19] and in test [20] was less than 50% throughout. In addition, the inhibition in test [21], in [22], in test [23], in test [24], in test [25] and in test [26] was less than 50% each time. Also, the inhibition in test [4], in test [27], in test [28], in test [29], in test [30] and in [31] was less than 50% throughout. Besides, the inhibition in test [43], in [33], in test [35], in test [36], in test [37] and in [38] was less than 50% each time. The inhibition in [39], in test [6], in test [40] and in test [41] was less than 50% each time. Moreover, the Ratio in [1] stood at 1.39. Further, the Ki in [3] is 1640 nM; in [5], 2280 nM; in test [7], greater than 10000 nM.

For the compound `OC12C3C4CC5C6C4C1C6C(C53)N2Cc1cccc(F)c1` (stereo not drawn), the Ratio in test [1] turned out to be 4.94. Further, the inhibition in test [2], in test [4] and in [6] was less than 50% each time. Moreover, the Ki in test [3] is 31 nM; in test [5], 153 nM; in [7], greater than 10000 nM; in [8], greater than 10000 nM.
